Seven molecules from US20220402948A1, “EGFR INHIBITOR, COMPOSITION AND PREPARATION METHOD THEREFOR” (BETTA PHARMACEUTICALS CO., LTD., priority 2019, published 2022) can be followed below.

One experiment deals with IGF1R (Homo sapiens, UniProt P08069). Kind of experiment: IGF1R kinase test (mobility variation analysis, Caliper EZ Reader). The class given is biochemical. The following applies: kinase enzymatic activity, Table 1; read-out: EGFR IGF1R IC50. The procedure, abridged: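 Mobility-shift readout of substrate conversion, normalised to positive (no compound) and negative (no kinase) controls, gives % inhibition and IC50 by four-parameter fit. Compounds, 3-fold dilutions over 10 concentrations starting at 3000 nM, preincubated 10 min with kinase before ATP/substrate start; room temperature.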

A further experiment deals with A431. Briefly: A431 cell proliferation assay (CellTiter Glo, 72 hours). The class given is cell-based. The note with it: Homo sapiens, A-431, 72 h, cell proliferation, A431, 72 hours, Table 2; read-out: A431 IC50. The procedure, abridged:
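Luminescence (CellTiter-Glo) after 72 h treatment gives viability, fitted by nonlinear regression to yield IC50. Cells seeded at 2000 per well; nine 3-fold concentrations from 1000 nM, DMSO final 0.1% (0.5% for certain compounds).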

The next experiment deals with EGFR WT (Homo sapiens, UniProt P00533). Kind of experiment: EGFR WT kinase test (mobility variation analysis, Caliper EZ Reader). It is filed as biochemical. The note with it: kinase enzymatic activity, Table 1. Put shortly:
(§1)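 Read-out is substrate-to-product conversion by mobility shift, stopped after incubation at room temperature with ATP and substrate, following a 10-minute room-temperature compound–enzyme pre-incubation. IC50 obtained by four-parameter variable-slope fitting of inhibition normalized between enzyme-free and uninhibited controls.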

For experiment [1], the target named is Ba/F3-EGFR wild-type cell line (Homo sapiens, UniProt P00533). Briefly: Ba/F3-EGFR wild-type cell proliferation assay (CellTiter Glo, 72 hours). The class given is cell-based. The following applies: Table 2, read-out: EGFR WT IC50. Put shortly:
(§2)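 Ba/F3 cells stably overexpressing wild-type EGFR or EGFR Δ19del/T790M/C797S were seeded at 2000 cells/well and incubated 72 h with compound. Viability was read by CellTiter-Glo luminescence, and IC50 came from a four-parameter logistic fit of signal against log concentration.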

Experiment [2] concerns the target Ba/F3 cells with EGFR Δ19del/T790M/C797S mutation gene stably overexpressed (Homo sapiens, UniProt P00533, T790M/C797S, cells depend on it, form not given). Briefly: Ba/F3-Δ19del/T790M/C797S cell proliferation assay (CellTiter Glo, 72 hours). It is filed as cell-based. The note with it: Table 2, read-out: EGFR Δ19del/T790M/C797S IC50. Put shortly: as §2
A further experiment addresses EGFRΔ19del/T790M/C797S (Homo sapiens, UniProt P00533, T790M/C797S, form not given). Kind of experiment: EGFR Δ19del/T790M/C797S kinase test (mobility variation analysis, Caliper EZ Reader). The class given is biochemical. The note with it: kinase enzymatic activity, Table 1. The procedure, abridged:
as §1

Sequence of IGF1R (P08069 31-1367, species assumed): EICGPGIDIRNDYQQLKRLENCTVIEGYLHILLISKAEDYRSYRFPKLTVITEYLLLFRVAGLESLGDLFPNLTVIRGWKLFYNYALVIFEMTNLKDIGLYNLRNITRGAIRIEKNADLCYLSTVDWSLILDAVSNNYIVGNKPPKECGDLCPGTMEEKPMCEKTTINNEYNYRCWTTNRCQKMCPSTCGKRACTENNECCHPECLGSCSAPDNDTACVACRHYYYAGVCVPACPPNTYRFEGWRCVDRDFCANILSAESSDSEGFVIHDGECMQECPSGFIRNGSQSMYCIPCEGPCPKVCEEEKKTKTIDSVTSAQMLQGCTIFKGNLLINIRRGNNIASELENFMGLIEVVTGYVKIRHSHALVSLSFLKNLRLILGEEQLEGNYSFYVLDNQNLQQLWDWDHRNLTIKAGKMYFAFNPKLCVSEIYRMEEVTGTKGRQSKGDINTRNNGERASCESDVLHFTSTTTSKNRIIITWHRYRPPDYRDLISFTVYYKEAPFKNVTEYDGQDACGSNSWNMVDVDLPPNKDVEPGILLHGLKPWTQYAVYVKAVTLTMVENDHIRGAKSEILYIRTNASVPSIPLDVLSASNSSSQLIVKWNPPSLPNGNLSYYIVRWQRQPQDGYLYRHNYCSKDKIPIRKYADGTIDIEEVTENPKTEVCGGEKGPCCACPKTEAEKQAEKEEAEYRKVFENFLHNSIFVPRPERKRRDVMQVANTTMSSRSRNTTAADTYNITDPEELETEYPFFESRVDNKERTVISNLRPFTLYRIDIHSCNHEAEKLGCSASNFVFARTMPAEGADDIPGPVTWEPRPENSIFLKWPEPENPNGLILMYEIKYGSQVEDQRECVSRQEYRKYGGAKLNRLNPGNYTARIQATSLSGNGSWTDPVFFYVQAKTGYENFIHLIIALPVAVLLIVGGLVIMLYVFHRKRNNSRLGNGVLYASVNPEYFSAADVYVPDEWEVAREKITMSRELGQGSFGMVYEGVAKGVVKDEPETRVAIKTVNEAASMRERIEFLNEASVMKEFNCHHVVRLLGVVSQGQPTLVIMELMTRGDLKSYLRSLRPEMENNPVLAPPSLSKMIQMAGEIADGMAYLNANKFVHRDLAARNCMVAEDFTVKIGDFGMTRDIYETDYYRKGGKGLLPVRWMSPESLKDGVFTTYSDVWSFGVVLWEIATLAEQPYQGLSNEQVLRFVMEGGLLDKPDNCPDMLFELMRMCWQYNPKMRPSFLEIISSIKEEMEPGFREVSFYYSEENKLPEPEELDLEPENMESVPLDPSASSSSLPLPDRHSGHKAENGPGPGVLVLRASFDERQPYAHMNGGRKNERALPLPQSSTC
Sequence of Ba/F3 cells with EGFR Δ19del/T790M/C797S mutation gene stably overexpressed (P00533 with tags, fused parts or gaps DEL746-750/T790M/C797S, form open): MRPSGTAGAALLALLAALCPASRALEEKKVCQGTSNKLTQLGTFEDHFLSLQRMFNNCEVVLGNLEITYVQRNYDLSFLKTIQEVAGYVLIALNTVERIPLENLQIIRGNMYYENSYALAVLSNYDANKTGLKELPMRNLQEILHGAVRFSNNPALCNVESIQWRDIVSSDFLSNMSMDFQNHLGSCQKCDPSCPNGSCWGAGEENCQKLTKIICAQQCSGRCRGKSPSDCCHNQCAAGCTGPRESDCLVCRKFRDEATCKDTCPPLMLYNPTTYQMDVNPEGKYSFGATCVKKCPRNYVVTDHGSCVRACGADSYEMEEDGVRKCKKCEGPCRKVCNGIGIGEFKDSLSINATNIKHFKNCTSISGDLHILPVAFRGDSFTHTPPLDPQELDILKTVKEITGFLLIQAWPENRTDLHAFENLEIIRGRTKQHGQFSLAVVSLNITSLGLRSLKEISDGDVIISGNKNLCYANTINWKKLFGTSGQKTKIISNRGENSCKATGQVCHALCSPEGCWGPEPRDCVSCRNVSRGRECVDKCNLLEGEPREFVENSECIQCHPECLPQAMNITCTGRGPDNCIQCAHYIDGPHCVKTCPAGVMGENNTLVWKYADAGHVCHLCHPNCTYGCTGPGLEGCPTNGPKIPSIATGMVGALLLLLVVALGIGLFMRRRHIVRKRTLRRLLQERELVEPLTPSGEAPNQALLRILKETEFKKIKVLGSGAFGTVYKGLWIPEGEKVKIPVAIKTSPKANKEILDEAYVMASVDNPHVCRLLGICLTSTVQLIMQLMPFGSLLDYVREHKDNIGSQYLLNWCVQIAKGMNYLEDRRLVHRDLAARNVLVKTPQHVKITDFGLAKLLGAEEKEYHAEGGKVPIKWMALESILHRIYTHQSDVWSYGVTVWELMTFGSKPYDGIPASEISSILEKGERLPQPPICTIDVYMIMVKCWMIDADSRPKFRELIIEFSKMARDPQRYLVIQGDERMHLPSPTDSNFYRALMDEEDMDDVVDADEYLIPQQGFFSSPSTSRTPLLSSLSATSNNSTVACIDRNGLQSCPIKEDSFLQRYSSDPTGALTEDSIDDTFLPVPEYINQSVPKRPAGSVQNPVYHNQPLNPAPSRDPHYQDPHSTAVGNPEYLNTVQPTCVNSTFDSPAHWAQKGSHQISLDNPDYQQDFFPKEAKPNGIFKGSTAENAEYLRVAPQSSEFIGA
Sequence of EGFRΔ19del/T790M/C797S (P00533 with tags, fused parts or gaps DEL746-750/T790M/C797S, form open): as above
Sequence of EGFR WT (P00533 25-1210): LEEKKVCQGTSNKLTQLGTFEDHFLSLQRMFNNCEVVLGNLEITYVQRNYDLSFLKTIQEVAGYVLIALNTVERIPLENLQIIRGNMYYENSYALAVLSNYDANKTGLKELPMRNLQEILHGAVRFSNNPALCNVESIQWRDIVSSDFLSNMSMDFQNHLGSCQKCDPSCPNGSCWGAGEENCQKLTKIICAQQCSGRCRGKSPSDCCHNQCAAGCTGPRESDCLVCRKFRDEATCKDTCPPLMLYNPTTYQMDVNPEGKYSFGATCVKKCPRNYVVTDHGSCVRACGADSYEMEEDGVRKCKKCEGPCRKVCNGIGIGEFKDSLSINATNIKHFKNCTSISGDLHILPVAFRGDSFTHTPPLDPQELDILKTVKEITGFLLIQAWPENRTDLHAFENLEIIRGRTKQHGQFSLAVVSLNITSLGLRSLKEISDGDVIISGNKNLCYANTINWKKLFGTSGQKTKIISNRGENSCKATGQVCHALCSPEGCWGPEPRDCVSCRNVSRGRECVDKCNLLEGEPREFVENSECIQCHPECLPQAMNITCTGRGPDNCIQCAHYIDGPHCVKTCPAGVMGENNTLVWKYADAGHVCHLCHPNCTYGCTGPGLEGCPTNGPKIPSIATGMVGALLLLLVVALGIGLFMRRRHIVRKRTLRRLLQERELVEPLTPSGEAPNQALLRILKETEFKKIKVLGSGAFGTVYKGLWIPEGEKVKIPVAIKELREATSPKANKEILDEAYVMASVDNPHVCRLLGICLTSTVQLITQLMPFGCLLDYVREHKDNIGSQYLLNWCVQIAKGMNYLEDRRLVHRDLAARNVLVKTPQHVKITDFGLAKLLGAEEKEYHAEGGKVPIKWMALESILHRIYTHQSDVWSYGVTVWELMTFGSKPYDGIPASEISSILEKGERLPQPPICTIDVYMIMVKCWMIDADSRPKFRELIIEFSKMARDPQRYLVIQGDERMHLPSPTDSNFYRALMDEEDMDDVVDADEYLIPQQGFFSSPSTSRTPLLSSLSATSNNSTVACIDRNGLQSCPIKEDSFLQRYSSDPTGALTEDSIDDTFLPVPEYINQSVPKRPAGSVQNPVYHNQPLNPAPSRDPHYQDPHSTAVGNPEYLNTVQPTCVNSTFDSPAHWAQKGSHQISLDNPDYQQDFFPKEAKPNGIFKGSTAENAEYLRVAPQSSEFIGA

For `CCc1cc(Nc2ncc(Br)c(Nc3ccc(-c4ccc(OC)cn4)cc3P(C)(C)=O)n2)c(OC)cc1N1CCC(N2CCN(C)CC2)CC1` [Compound K-074, (2-((5-Bromo-2-((5-ethyl-2-methoxy-4-(4-(4-methylpiperazin-1-yl)piperidin-1-yl)phenyl)amino)pyrimidin-4-yl)amino)-5-(5-methoxypyridin-2-yl)phenyl)dimethylphosphine oxide], the IC50 at IGF1R was 253 nM; in the experiment with A431, 2760 nM; at EGFR WT, 35.8 nM; on EGFRΔ19del/T790M/C797S it was 0.4 nM. Further, the results for the GI50 in experiment [1] and in experiment [2] were 267 nM and 4.2 nM, respectively.
`CCc1cc(Nc2ncc(Br)c(Nc3ccc(-c4nn(C)c5ncccc45)cc3P(C)(C)=O)n2)c(OC)cc1N1CCC(N(C)C)CC1` [Compound K-079, (2-((5-Bromo-2-((4-(4-(dimethylamino)piperidin-1-yl)-5-ethyl-2-methoxyphenyl)amino)pyrimidine-4-yl)amino)-5-(1-methyl-1H-pyrazolo[3,4-b]pyridin-3-yl)phenyl)dimethylphosphine oxide]: the IC50 worked out at 997 nM at IGF1R, 7650 nM with A431, 149 nM against EGFR WT and 0.5 nM at EGFRΔ19del/T790M/C797S. Besides, the values for the GI50 in experiment [1] and in experiment [2] were 432 nM and 50.9 nM, respectively.
On to `COc1cnn(-c2ccc(Nc3nc(Nc4cc(C)c(N5CCC(N6CCCCC6)CC5)cc4OC)ncc3Br)c(P(C)(C)=O)c2)c1` [Compound K-087], for which the IC50 came to 96.1 nM on IGF1R, 4820 nM with A431, 17.2 nM against EGFR WT and 0.1 nM on EGFRΔ19del/T790M/C797S. Besides, the GI50 came to 245 nM in experiment [1] and 7.4 nM in experiment [2].
For the molecule `COc1cnn(-c2ccc(Nc3nc(Nc4cc(C)c(N5CCN(C6CCN(C)CC6)CC5)cc4OC)ncc3Br)c(P(C)(C)=O)c2)c1` [Compound K-088], the IC50 on IGF1R is 170 nM; in the experiment on A431, above 10000 nM; against EGFR WT, 31 nM; at EGFRΔ19del/T790M/C797S, 0.3 nM. Further, the GI50 in experiment [1] was 285 nM; in experiment [2] it was 14.6 nM.
Regarding `COc1cnn(-c2ccc(Nc3nc(Nc4cc(C)c(N5CCN(C6CCCC6)CC5)cc4OC)ncc3Br)c(P(C)(C)=O)c2)c1` [Compound K-089, (2-((5-Bromo-2-((4-(4-cyclopentylpiperazin-1-yl)-2-methoxy-5-methylphenyl)amino)pyrimidin-4-yl)amino)-5-(4-methoxy-1H-pyrazol-1-yl)phenyl)dimethylphosphine oxide], the IC50 at IGF1R was 259 nM; in the experiment with A431, above 10000 nM; against EGFR WT, 169 nM; against EGFRΔ19del/T790M/C797S, 0.3 nM. In addition, the values for the GI50 in experiment [1] and in experiment [2] were 400 nM and 9.5 nM, respectively.
Regarding `CCc1cc(Nc2ncc(Br)c(Nc3ccc(-n4cc(COC)cn4)cc3P(C)(C)=O)n2)c(OC)cc1N1CCC(N2CCN(C)CC2)CC1` [Compound K-090], the IC50 at IGF1R turned out to be 202 nM; in the experiment with A431, 2320 nM; against EGFR WT, 28.2 nM; against EGFRΔ19del/T790M/C797S, 0.3 nM. For the same molecule, the GI50 amounted to 467 nM in experiment [1] and 18.4 nM in experiment [2].
On to `CCc1cc(Nc2ncc(Cl)c(Nc3ccc(-c4cnn5c4CCCC5)cc3P(C)(C)=O)n2)c(OC)cc1N1CCC(N2CCN(C)CC2)CC1` [Compound K-104, (2-((5-Chloro-2-((5-ethyl-2-methoxy-4-(4-(4-methylpiperazin-1-yl)piperidin-1-yl)phenyl)amino)pyrimidin-4-yl)amino)-5-(4,5,6,7-tetrahydropyrazolo[1,5-a]pyridin-3-yl)phenyl)dimethylphosphine oxide], for which the half-inhibitory concentration (IC50) on IGF1R was 378 nM; with A431 it was 3250 nM; against EGFR WT, 23.1 nM; on EGFRΔ19del/T790M/C797S it was 0.4 nM. Moreover, the results for the GI50 in experiment [1] and in experiment [2] were 204 nM and 64.2 nM, respectively.
